Measured values: patent publication US8791263B2, “Cortistatin A analog and use thereof” (Osaka University, priority 2010, dated 2014)
pIC50: −log10 of the molar value. Like-named read-outs stand apart in the source and are kept apart here. Values belong to the compound of their own block, whether it stands above or below them.

Assays:
[1] = system: normal human umbilical vein endothelial cells (HUVEC); assay: anti-proliferative activity against HUVEC (WST-8); format: cell-based; conditions: for pIC50: Homo sapiens, HUVEC, 72 hours culture with compound, WST-8; for S.I. (Selective Index): IC50 against KB3-1 divided by IC50 against HUVEC; for selective anti-proliferative activity against vascular endothelial cells: HUVEC versus KB3-1, FIGS. 8 to 12
Description: (§1) CA-1, which is represented by formula (II), was used as test compound, and an existing anticancer drug doxorubicin was used as a control compound. The test compound and the control compound were separately dissolved at predetermined concentrations in EtOH. The cells used were normal human umbilical vein endothelial cells (HUVEC) and human pharyngeal carcinoma KB3-1 cells.
(§2) HUVEC and KB3-1 were seeded in separate 96-well multiwell plates at 2×10^3 cells/100 μL/well and cultured in an atmosphere of 5% CO2 at 37° C. for 24 hours. Next, 1.0 μL each of the ethanol solutions containing the test compound or the control compound at various concentrations were added, and the cells were cultured under the same conditions for additional 72 hours. After 72 hours, 10 μL of WST-8 (2-(2-methoxy-4-nitrophenyl)-3-(4-nitrophenyl)-5-(2,4-disulfophenyl)-2H-tetrazolium, monosodium salt) reagent was added. After 3-hour incubation, the amount of water-soluble formazan formed in viable cells was calorimetrically determined by measurement at OD 450 nm, and the growth inhibition ratio was calculated by comparison of the amount of formazan between the compound treatment groups and the non-treatment group. The anti-proliferative activities of the test compound and the control compound on each type of cells were expressed as a 50% growth inhibitory concentration (IC50 value). The cell type selectivity (Selective Index (S. I.) value) was expressed as a value resulting from division of the IC50 value against KB3-1 by the IC50 value against HUVEC.
CA-1, CA-2, CA-3, CA-4 and CA-5 were evaluated for anti-proliferative activity against normal human umbilical vein endothelial cells (HUVEC) and human pharyngeal carcinoma KB3-1 cells. The five test compounds were separately dissolved at predetermined concentrations in EtOH. HUVEC and KB3-1 were seeded in separate 96-well multiwell plates at 2×10^3 cells/100 μL/well and cultured in an atmosphere of 5% CO2 at 37° C. for 24 hrs. Next, 1.0 μL each of the ethanol solutions containing the test compound or the control compound at various concentrations were added, and the cells were cultured under the same conditions for additional 72 hours. After 72 hours, 10 μL of WST-8 (2-(2-methoxy-4-nitrophenyl)-3-(4-nitrophenyl)-5-(2,4-disulfophenyl)-2H-tetrazolium, monosodium salt) reagent was added. After 3-hour incubation, the amount of water-soluble formazan formed in viable cells was colorimetrically determined measurement at OD 450 nm, and the growth inhibition ratio was calculated by comparison of the amount of formazan between the compound treatment groups and the non-treatment group.

[2] = system: human pharyngeal carcinoma KB3-1 cells; assay: anti-proliferative activity against KB3-1 (WST-8); format: cell-based; conditions: KB 3-1, 72 hours culture with compound
Description: as §1
as §2, with “After 72 hours, 10 μL of WST-8 (2-(2-methoxy-4-nitrophenyl)-3-(4-nitrophenyl)-5-(2,4-disulfophenyl)-2H-tetrazolium, monosodium salt) reagent was added.” left out, “The anti-proliferative activities of the test compound and the control compound on each type of cells were expressed as a 50% growth inhibitory concentration (IC50 value).” left out
CA-1, CA-2, CA-3, CA-4 and CA-5 were evaluated for anti-proliferative activity against normal human umbilical vein endothelial cells (HUVEC) and human pharyngeal carcinoma KB3-1 cells. […]

[3] = system: Matrigel with proangiogenic factor bFGF (angiogenesis); assay: in vivo anti-angiogenic activity after intraperitoneal administration (Matrigel, hemoglobin); conditions: not less than 10 mg/kg, once every two days, 5 times, ddY mice
Description: (§3) The test compound CA-1 was suspended at predetermined concentrations in 1% CMC. To control groups, the vehicle (1% CMC) was administered.
(§4) To 500 μL of Matrigel (trade name, manufactured by BD), 200 ng/mL of a proangiogenic factor bFGF (basic fibroblast growth factor) and 100 U/mL of heparin were added, and the mixture was subcutaneously injected into the flanks of female ddY mice (6-week old) with an injection needle of 23G. After the Matrigel injection, the test compound CA-1 or the vehicle (1% CMC) was intraperitoneally administered on a schedule of once every two days, 5 times in total. Aside from this, Matrigel without bFGF was injected into a group of mice and then the vehicle was administered thereto (negative control group). The anti-angiogenic effect was evaluated as follows: the day after the final administration of the test compound, the implanted Matrigel was harvested and weighed, and then the amount of hemoglobin accumulated in the Matrigel was compared between the test compound administration groups and the control groups. Significance analysis was performed using a Dunnett's test at a significance level of 5%.

[4] = system: Mouse sarcoma S180 cells; assay: antitumor activity in mouse cancer cell transplant model after intraperitoneal administration; format: in vivo, mice; conditions: for tumor weight, % of that of the control group: intraperitoneal, once every two days, 7 times
Description: (§5) The test compound CA-1 was suspended at predetermined concentrations in 1% CMC. The vehicle (1% CMC) was administered to the control group.
(§6) Mouse sarcoma S180 cells were suspended at 1×10^7 cells/mL in a serum-free RPMI culture medium and the suspension was kept on ice. Then, the S180 cell suspension was subcutaneously inoculated at 1×10^6 cells/100 μL/mouse into the flanks of female ddY mice (5-week old) with an injection needle of 23G. The mice were maintained for one week for engraftment of the S180 cells. Subsequently, the test compound (5 mg/kg, 10 mg/kg and 25 mg/kg) or the vehicle (1% CMC) was intraperitoneally administered on a schedule of on every two days, 7 times in total. The antitumor activity was evaluated as follows: one day after the final administration, tumors were isolated and weighed, and then the tumor weight was compared between the test compound administration groups and the control group.

[5] = system: Matrigel with proangiogenic factor bFGF (angiogenesis); assay: in vivo anti-angiogenic activity after oral administration (Matrigel, hemoglobin); set-up: species or system mice
Description: as §3, §4
The test was performed in the same manner as in Example 3, except that oral administration was performed instead of intraperitoneal administration and that a 5.0 mg/kg administration group was additionally included.

[6] = system: Mouse sarcoma S180 cells; assay: antitumor activity in mouse cancer cell transplant model after oral administration; format: in vivo, mice; conditions: for tumor weight, % of that of the control group: oral
Description: as §5, §6
The test was performed in the same manner as in Example 3, except that oral administration was performed instead of intraperitoneal administration and that a 50 mg/kg administration group was included instead of the 5 mg/kg administration group.

[7] = system: human umbilical vein endothelial cells (HUVEC); assay: migration and tubulogenesis of HUVEC; format: cell-based
[8] = system: human umbilical vein endothelial cells (HUVEC); conditions: cited from earlier work
[9] = system: human umbilical vein endothelial cells (HUVEC); conditions: background art; cited from earlier work

- pIC50 [2]: 6.44
SMILES: COc1cccc2c1C(=O)c1c(O)c3c(c(O)c1C2=O)C[C@@](O)(C(=O)CO)C[C@@H]3O[C@H]1C[C@H](N)[C@H](O)[C@H](C)O1 [doxorubicin, reference compound]
- pIC50 [1]: 6.89
- S.I. (Selective Index) [1]: 2.7

SMILES: C[C@]12C=CC3=CC4=C(CC(CO)CC4=O)O[C@H]3[C@@H]1CC[C@@H]2c1ccc2ccncc2c1 (stereo partly drawn) [CA-2, (3R,3aR,11aS,11bR)-9-(hydroxymethyl)-3-(isoquinolin-7-yl)-3a-methyl-1,3,3a,8,9,10,11a,11b-octahydrocyclopenta[c]xanthen-7(2H)-one]
- selective anti-proliferative activity against vascular endothelial cells [1]: selectively inhibits the growth of vascular endothelial cells
- selective anti-proliferative activity against vascular endothelial cells ([1]; listed as (XVIII)): selective anti-proliferative activity against vascular endothelial cells in a broad range of concentration

SMILES: C[C@]12C=CC3=CC4=C(CCCC4=O)O[C@H]3[C@@H]1CC(=O)[C@@H]2c1ccc2ccncc2c1 [CA-5, (3R,3aS,11aS,11bR)-3-(isoquinolin-7-yl)-3a-methyl-1,3,3a,9,10,11b-hexahydrocyclopenta[c]xanthene-2,7(8H,11aH)-dione]
- selective anti-proliferative activity against vascular endothelial cells [1]: selectively inhibits the growth of vascular endothelial cells
- selective anti-proliferative activity against vascular endothelial cells ([1]; listed as (LIV)): selective anti-proliferative activity against vascular endothelial cells in a broad range of concentration

- pIC50 [2]: 4.98
SMILES: C[C@]12C=CC3=CC4=C(CCCC4=O)O[C@H]3[C@@H]1CC[C@@H]2c1ccc2ccncc2c1 [CA-1, (3R,3aR,11aS,11bR)-3-(isoquinolin-7-yl)-3a-methyl-1,2,3,3a,9,10,11a,11b-octahydrocyclopenta[c]xanthen-7(8H)-one]
- selective anti-proliferative activity against vascular endothelial cells [1]: selectively inhibits the growth of vascular endothelial cells
- pIC50 [1]: 7.00
- S.I. (Selective Index) [1]: 105
- anti-proliferative activity against vascular endothelial cells, times stronger than against other cancer cells ([1]; versus other cancer cells): more than 100 times
- amount of hemoglobin accumulated in the Matrigel [3]: significantly reduced the amount of hemoglobin accumulated in the Matrigel to almost the same level as that of the group injected with Matrigel not supplemented with the proangiogenic factor bFGF
- tumor weight, % of that of the control group ([4]; 5 mg/kg): 34%
- tumor weight, % of that of the control group ([4]; 10 mg/kg): 23%
- tumor weight, % of that of the control group ([4]; 25 mg/kg): 17%
- weight loss, diarrhea, visual abnormalities in organs ([4]; intraperitoneal, 5, 10 and 25 mg/kg groups): In no groups, weight loss or diarrhea, or visual abnormalities in organs of the mice were observed
- amount of hemoglobin accumulated in the Matrigel ([5]; 50 mg/kg): reduced to almost the same level as that of the group injected with Matrigel not supplemented with the proangiogenic factor bFGF
- amount of hemoglobin accumulated in the Matrigel ([5]; not less than 10 mg/kg): significantly reduced the amount of hemoglobin accumulated in the Matrigel
- tumor weight, % of that of the control group ([6]; 10 mg/kg): 67%
- tumor weight, % of that of the control group ([6]; 25 mg/kg): 50%
- tumor weight, % of that of the control group ([6]; 50 mg/kg): 25%
- weight loss, diarrhea, visual abnormalities in organs ([6]; oral, 10, 25 and 50 mg/kg groups): In no groups, weight loss or diarrhea, or visual abnormalities in organs of the mice were observed
- migration and tubulogenesis of HUVEC [7]: inhibits the migration and tubulogenesis of human umbilical vein endothelial cells (HUVEC)

SMILES: C[C@]12C=CC3=CC4=C(CC(C(=O)O)CC4=O)O[C@H]3[C@@H]1CC[C@@H]2c1ccc2ccncc2c1 (stereo partly drawn) [CA-4, (3R,3aR,11aS,11bR)-3-(isoquinolin-7-yl)-3a-methyl-7-oxo-1,2,3a,7,8,9,10,11a,11b-decahydrocyclopenta[c]xanthene-9-carboxylic acid]
- selective anti-proliferative activity against vascular endothelial cells [1]: selectively inhibits the growth of vascular endothelial cells
- selective anti-proliferative activity against vascular endothelial cells ([1]; listed as (XXIII)): selective anti-proliferative activity against vascular endothelial cells in a broad range of concentration

SMILES: CN(C)[C@H]1C[C@@]23CC[C@@]4(O2)C(=CC[C@]2(C)[C@@H](c5ccc6ccncc6c5)CC[C@H]24)C=C3[C@@H](O)[C@@H]1O [cortistatin A]
- pIC50 ([8]; background art, read-out: IC50 against HUVEC): 8.74
- anti-proliferative activity against HUVEC, times stronger than against other cancer cells ([8]; versus other cancer cells): more than 3000 times
- migration and tubulogenesis of HUVEC [9]: inhibits the migration and tubulogenesis of HUVEC

SMILES: C[C@]12C=CC3=CC4=C(CC(CN)CC4=O)O[C@H]3[C@@H]1CC[C@@H]2c1ccc2ccncc2c1 (stereo partly shown) [CA-3]
- selective anti-proliferative activity against vascular endothelial cells [1]: selectively inhibits the growth of vascular endothelial cells
- selective anti-proliferative activity against vascular endothelial cells ([1]; listed as (XIX)): selective anti-proliferative activity against vascular endothelial cells in a broad range of concentration
